This is an account of results in US8501245B2, “Selectively inhibiting estrogen production and providing estrogenic effects in the human body” (Morinda, Inc., priority 2000, dated 2013).

Values joined by “and” are separate entries in the source; they are usually repeats but may differ in a detail not shown here. Equal entries are not always repeated.

In the assay the test system is ICR derived female immature mice. Description: Protocol # 531000 Estrogenic Agonism in Mice (uterine wet weight). Type of assay: in vivo. The conditions noted are these: 0.03 mg/kg PO; for % Increase in uterine wet weight: compared with historical vehicle control (16.5 mg). The procedure:
Tahitian Noni® Puree Juice Concentrate (TNPJC) dry form was evaluated for possible estrogenic agonism is ICT derived immature female mice at a maximum tolerated dose of 4000 mg/kg administered orally once daily for 3 consecutive days. The dry form of TNPJC resulted from using a Rotor Vap with pressure and low temperature.
Test substance TNCONC was evaluated for possible Estrogenic Agonism in ICR derived female immature mice at a maximum tolerated dose of 4000 mg/kg administered orally once daily for 3 consecutive days.
1. Test Substances and Dosing Pattern—TNCONC, provided by Morinda, Inc., was dissolved in 2% Tween 80/0.9% NaCl. For testing, a maximum tolerated dose of 4000 mg/kg was administered […] daily for 3 consecutive days, and a dosing volume of 10 ml/kg was used.
2. Animals—Female ICR mice provided by MDS Pharma Services—Taiwan Ltd. were used. Space allocation for 5 animals was 29×18×13 cm. Animals were housed in APEC^R cages and maintained in a controlled temperature (22° C.-24° C.) and humidity (60%-80%) environment with 12 hours light dark cycles for at least one week in MDS Pharma Services—Taiwan Laboratory prior to use. Free access to standard lab chow for rats (Lab Diet, Rodent Diet, PMI Nutrition International, USA) and tap water was granted. All aspects of this work including housing, experimentation and disposal of animals were performed in general accordance with the International Guiding Principles for Biomedical Research Involving Animals (CIOMS Publication No. ISBN 92 90360194, 1985),
Test substance was administered at a maximum tolerated dose of 4000 mg/kg IP for three consecutive days to a group of 5 ICR derived immature female mice weighing 13±1 g. The animals were sacrificed 24 hours after the final dose and wet weight of the uterus of each animal was measured. A 50 percent or more (≧50%) increase in uterine wet weight relative to control group of animals indicates possible estrogen agonist activity.
A vehicle or test substance was administered IP for three consecutive days to female immature mice weighing 13±1 g. The animals were sacrificed 24 hours after the final dose and wet weight of the uterus of each animal was determined. A 50 percent or more (≧50%) increase in uterine wet weight relative to the vehicle treated group of animals, shown in parenthesis, indicates possible estrogen agonist activity.

As to `C[C@]12CC[C@@H]3c4ccc(OC(=O)c5ccccc5)cc4CC[C@H]3[C@@H]1CC[C@@H]2O` [β-Estradiol 3-Benzoate], the “Weight of Uterus, Average” value was 30.2 mg and the “% Increase in uterine wet weight” value is on record as “(83) %”. Also, the “% Increase in uterine wet weight” value (listed as Estradiol 3-Bensoate) is listed as “dramatic increase”. The “% Increase in uterine wet weight” value (listed as β-Estadiol 3-Benzoate) came to 83%. Also, for the setting “single animals N 1-5”, the “Weight of Uterus, Individual” value is 28.7 mg and 20.7 mg and 31.3 mg and 35.6 mg and 34.9 mg.
